Reference: ChEMBL document CHEMBL4680133, “Novel nitroimidazole derivatives evaluated for their trypanocidal, cytotoxic, and genotoxic activities” (Eur J Med Chem, 2020)

Columns and labels:
RAW264.7 [1] = test: Cytotoxicity against mouse RAW264.7 cells assessed as induction of membrane damage at 17.5 to 350 uM measured after 24 hrs by LDH assay; assay type: cell-based; conditions: raw264.7, 24 h, dose 17.5-350 µM
RAW264.7 [2] = test: Genotoxicity in mouse RAW264.7 cells assessed as mitotic index at 1750 uM measured after 24 hrs by micronucleus test (reference value: 40 to 249); assay type: toxicity, cell-based; conditions: raw264.7, 24 h
RAW264.7 [3] = test: Genotoxicity in mouse RAW264.7 cells assessed as number of micronucleated cells at 1750 uM measured after 24 hrs by micronucleus test (reference value: 12 to 15); assay type: toxicity, cell-based; conditions: raw264.7, 24 h
[4] = Cytotoxicity against mouse RAW264.7 cells assessed as reduction in cell viability measured after 24 hrs by WST1 assay; assay type: cell-based
HepG2 [5] = test: Cytotoxicity against human HepG2 cells assessed as induction of membrane damage at 17.5 to 350 uM measured after 24 hrs by LDH assay; assay type: cell-based; conditions: hepg2, 24 h, dose 17.5-350 µM
[6] = Mutagenicity in Salmonella typhimurium TA100 assessed as revertant/ug measured after 20 mins in absence of S9 fraction by microsome assay; assay type: toxicity; conditions: salmonella enterica subsp. enterica serovar typhimurium, microsomes
HepG2 [7] = test: Genotoxicity in human HepG2 assessed as number of micronucleated cells at 1750 uM measured after 24 hrs by micronucleus test (reference value: 14 to 18); assay type: toxicity, cell-based; conditions: hepg2, 24 h
[8] = Cytotoxicity against human HepG2 cells assessed as reduction in cell viability measured after 24 hrs by WST1 assay; assay type: cell-based
[9] = Mutagenicity in Salmonella typhimurium TA97 assessed as revertant/ug measured after 20 mins in presence of S9 fraction by microsome assay; assay type: toxicity, subcellular; conditions: salmonella enterica subsp. enterica serovar typhimurium, s9, 20 min
RAW264.7 [10] = test: Genotoxicity in mouse RAW264.7 cells assessed as number of micronucleated cells at 3500 uM measured after 24 hrs by micronucleus test (reference value: 12 to 15); assay type: toxicity, cell-based; conditions: raw264.7, 24 h
[11] = Mutagenicity in Salmonella typhimurium TA98 measured after 20 mins in absence of S9 fraction by microsome assay; assay type: toxicity; conditions: salmonella enterica subsp. enterica serovar typhimurium, microsomes, dose 5-100 µg
[12] = Selectivity index, ratio of GI50 for human HepG2 cells assessed as reduction in cell viability measured after 24 hrs by WST1 assay to IC50 for antitrypanosomal activity against Trypanosoma cruzi Y axenic amastigotes infected in African green monkey Vero cells; assay type: toxicity; conditions: read-out: Selectivity Index
RAW264.7 [13] = test: Genotoxicity in mouse RAW264.7 cells assessed as mitotic index at 3500 uM measured after 24 hrs by micronucleus test (reference value: 40 to 249); assay type: toxicity, cell-based; conditions: raw264.7, 24 h
[14] = Mutagenicity in Salmonella typhimurium TA102 measured after 20 mins in absence of S9 fraction by microsome assay; assay type: toxicity; conditions: salmonella enterica subsp. enterica serovar typhimurium, microsomes, dose 5-100 µg
[15] = Mutagenicity in Salmonella typhimurium YG1021 at 5 to 100 ug/plate after 20 mins by microsome assay; assay type: toxicity; conditions: salmonella enterica subsp. enterica serovar typhimurium, microsomes
[16] = Mutagenicity in Salmonella typhimurium YG1024 at 5 to 100 ug/plate after 20 mins by microsome assay; assay type: toxicity; conditions: salmonella enterica subsp. enterica serovar typhimurium, microsomes, dose 5-100 µg
HepG2 [17] = test: Genotoxicity in human HepG2 assessed as number of micronucleated cells at 350 uM measured after 24 hrs by micronucleus test (reference value: 14 to 18); assay type: toxicity, cell-based; conditions: hepg2, 24 h
[18] = Selectivity index, ratio of GI50 for human HepG2 cells assessed as reduction in cell viability measured after 24 hrs by WST1 assay to IC50 for antitrypanosomal activity against bloodstream form of Trypanosoma cruzi Y trypomastigotes infected in African green monkey Vero cells; assay type: toxicity; conditions: read-out: Selectivity Index
[19] = Mutagenicity in Salmonella typhimurium TA97 measured after 20 mins in presence of S9 fraction by microsome assay; assay type: toxicity, subcellular; conditions: salmonella enterica subsp. enterica serovar typhimurium, s9, 20 min, dose 5-100 µg
[20] = Mutagenicity in Salmonella typhimurium TA100 measured after 20 mins in absence of S9 fraction by microsome assay; assay type: toxicity; conditions: salmonella enterica subsp. enterica serovar typhimurium, microsomes, dose 5-100 µg
[21] = Selectivity index, ratio of GI50 for mouse RAW264.7 cells assessed as reduction in cell viability measured after 24 hrs by WST1 assay to IC50 for antitrypanosomal activity against bloodstream form of Trypanosoma cruzi Y trypomastigotes infected in African green monkey Vero cells; assay type: toxicity; conditions: read-out: Selectivity Index
[22] = Mutagenicity in Salmonella typhimurium TA102 measured after 20 mins in presence of S9 fraction by microsome assay; assay type: toxicity, subcellular; conditions: salmonella enterica subsp. enterica serovar typhimurium, s9, 20 min, dose 5-100 µg
[23] = Mutagenicity in Salmonella typhimurium TA98 measured after 20 mins in presence of S9 fraction by microsome assay; assay type: toxicity, subcellular; conditions: salmonella enterica subsp. enterica serovar typhimurium, s9, 20 min, dose 5-100 µg
[24] = Mutagenicity in Salmonella typhimurium TA97 measured after 20 mins in absence of S9 fraction by microsome assay; assay type: toxicity; conditions: salmonella enterica subsp. enterica serovar typhimurium, microsomes, dose 5-100 µg
Trypanosoma cruzi [25] = test: Antitrypanosomal activity against Trypanosoma cruzi Y axenic amastigotes infected in African green monkey Vero cells after 24 hrs by MTT assay; assay type: functional, organism-based
Trypanosoma cruzi [26] = test: Antitrypanosomal activity against bloodstream form of Trypanosoma cruzi Y trypomastigotes infected in African green monkey Vero cells assessed as increase in parasite lysis measured after 24 hrs by Neubauer chamber method; assay type: functional, organism-based
[27] = Toxicity in Salmonella typhimurium YG1021 at 5 to 100 ug/plate after 20 mins by colony counting method; conditions: salmonella enterica subsp. enterica serovar typhimurium, dose 5-100 µg
[28] = Selectivity index, ratio of GI50 for mouse RAW264.7 cells assessed as reduction in cell viability measured after 24 hrs by WST1 assay to IC50 for antitrypanosomal activity against Trypanosoma cruzi Y axenic amastigotes infected in African green monkey Vero cells; assay type: toxicity; conditions: read-out: Selectivity Index
[29] = Genotoxicity in human HepG2 assessed as survival at 175 uM measured after 24 hrs by micronucleus test (reference value: 100%); assay type: toxicity, cell-based; conditions: HepG2 cells, read-out: Survival
[30] = Mutagenicity in Salmonella typhimurium TA100 measured after 20 mins in presence of S9 fraction by microsome assay; assay type: toxicity, subcellular; conditions: salmonella enterica subsp. enterica serovar typhimurium, s9, 20 min, dose 5-100 µg
[31] = Mutagenicity in Salmonella typhimurium TA100 assessed as revertant/ug measured after 20 mins in presence of S9 fraction by microsome assay; assay type: toxicity, subcellular; conditions: salmonella enterica subsp. enterica serovar typhimurium, s9, 20 min
[32] = Mutagenicity in Salmonella typhimurium TA97 assessed as revertant/ug measured after 20 mins in absence of S9 fraction by microsome assay; assay type: toxicity; conditions: salmonella enterica subsp. enterica serovar typhimurium, microsomes
HepG2 [33] = test: Genotoxicity in human HepG2 assessed as number of micronucleated cells at 427 uM measured after 24 hrs by micronucleus test (reference value: 14 to 18); assay type: toxicity, cell-based; conditions: hepg2, 24 h
[34] = Genotoxicity in mouse RAW264.7 cells assessed as survival at 4270 uM measured after 24 hrs by micronucleus test (reference value: 100%); assay type: toxicity, cell-based; conditions: read-out: Survival
HepG2 [35] = test: Cytotoxicity against human HepG2 cells at 21.3 to 427 uM measured after 24 hrs by LDH assay; assay type: cell-based; conditions: hepg2, 24 h, dose 21.3-427 µM
HepG2 [36] = test: Genotoxicity in human HepG2 assessed as mitotic index at 427 uM measured after 24 hrs by micronucleus test (reference value: 61 to 108); assay type: toxicity, cell-based; conditions: hepg2, 24 h
RAW264.7 [37] = test: Genotoxicity in mouse RAW264.7 cells assessed as number of micronucleated cells at 2135 uM measured after 24 hrs by micronucleus test (reference value: 12 to 15); assay type: toxicity, cell-based; conditions: raw264.7, 24 h
[38] = Genotoxicity in mouse RAW264.7 cells assessed as survival at 427 uM measured after 24 hrs by micronucleus test (reference value: 100%); assay type: toxicity, cell-based; conditions: read-out: Survival

SMILES | GI50 at 24 h [4] [µM] | Activity [6] [revertants/µg] | GI50 at 24 h [8] [µM] | Activity [9] [µg] | Activity [11] | selectivity ratio at 24 h [12] | Activity [14] | Activity [15] | Activity [16] | selectivity ratio at 24 h [18] | Activity [19] | Activity [20] | selectivity ratio at 24 h [21] | Activity [22] | Activity [23] | Activity [24] | IC50 (Trypanosoma cruzi [25]) [µM] | IC50 (Trypanosoma cruzi [26]) [µM] | Activity [27] | selectivity ratio at 24 h [28] | also measured
CCCCCc1ccc(-c2cn(-c3c([N+](=O)[O-])ncn3C)nn2)cc1 | 35.8 | 2.96 | > 350 | 8.494 | Non-Toxic | > 2.46 | Toxic | Toxic | Toxic | 27 | Toxic | Toxic | 2.77 | Toxic | Non-Toxic | Toxic | 142 | 12.9 | Toxic | > 0.25 | Activity (RAW264.7 [1]): Toxic; Activity_index (RAW264.7 [2]): 166; Activity (RAW264.7 [3]): 23; Activity (HepG2 [5]): Toxic; Activity (HepG2 [7]): 35; Activity (RAW264.7 [10]): 39; Activity_index (RAW264.7 [13]): 115; Activity (HepG2 [17]): 25; viability at 24 h, 175 µM [29]: 99%; Activity [30]: Toxic; Activity [31]: 2.46 revertants/µg; Activity [32]: 1.34 revertants/µg
Cn1cnc([N+](=O)[O-])c1-n1cc(C2CC2)nn1 | > 427 | 2.42 | > 427 | 3.833 | Non-Toxic | > 35.5 | Toxic | Non-Toxic | Non-Toxic | > 79 | Toxic | Toxic | > 79 | Toxic | Non-Toxic | Toxic | 12 | 5.4 | Non-Toxic | > 35.5 | Activity (HepG2 [33]): 17; viability at 24 h, 4270 µM [34]: 94%; Activity (HepG2 [35]): Non-Toxic; Activity_index (HepG2 [36]): 106; Activity (RAW264.7 [37]): 19; Activity [30]: Toxic; viability at 24 h, 427 µM [38]: 99%; Activity [31]: 0.278 revertants/µg; Activity [32]: 6.31 revertants/µg
